The values that follow come from ChEMBL document CHEMBL1201862, “PubChem BioAssay data set” (2004).

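Growth conditions: 96-well plates. Treatment: test compound, 48 hours, 5 concentrations. Analysis: linear interpolation between bracketing concentrations; unreached endpoints set to highest concentration. GI50: concentration for 50% inhibition of growth.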 Activity calls are given as the source filed them. Cut-off read from the data, not from the text of the source: active = GI50 up to about 1.1 µM and inactive = higher. Where only a bound is given, the exact number is not on record here.

Among the test systems are TK-10; UACC-62; OVCAR-5; DMS-114; RXF 393; M14; 786-0; UACC-257; K562; DLD-1; NCI-H226; SW-620; OVCAR-4; COLO 205; HCT-15; SK-MEL-5; SR.
Holding throughout (experiment): NCI anticancer screen, dose series, 48 h

`COC(=O)/C(C#N)=C1\CCC(Nc2cccc(C(F)(F)F)c2)N1C` (centres undefined): the GI50 was > 100 µM (inactive) in the assay with TK-10; 61 µM (inactive) in the assay on UACC-62; > 100 µM (inactive) in the assay on OVCAR-5; > 10 µM (inactive) with DMS-114; 46.1 µM (inactive) with RXF 393; > 100 µM (inactive) with M14. Moreover, the GI50 was > 100 µM (inactive) in the assay with 786-0; > 100 µM (inactive) in the assay on UACC-257; 45.8 µM (inactive) in the assay with K562; 57.5 µM (inactive) with DLD-1; > 100 µM (inactive) in the assay on NCI-H226; > 100 µM (inactive) with SW-620. The GI50 in the assay on OVCAR-4 is > 100 µM (inactive).
In the case of `O=C(NO)C12C3C4C1C1C2C3C41C(=O)NO` (centres undefined), the GI50 in the assay on COLO 205, with TK-10, with UACC-62, in the assay with OVCAR-5, with DMS-114 and in the assay on RXF 393 was > 100 µM (inactive) each time. Further, the GI50 with M14 is > 100 µM (inactive); with 786-0, > 100 µM (inactive); in the assay with K562 it was > 100 µM (inactive); with DLD-1, > 100 µM (inactive); in the assay on NCI-H226, > 100 µM (inactive); in the assay on HCT-15, more than 100 µM. The GI50 in the assay with SK-MEL-5 was > 100 µM (inactive).
As for `CCOC1=NC(=O)CC(c2ccccc2)S1` (centres undefined), the GI50 is > 100 µM (inactive) with COLO 205; > 100 µM (inactive) with UACC-62; > 100 µM (inactive) with OVCAR-5; 36.4 µM (inactive) with RXF 393; 68.1 µM (inactive) in the assay on M14; > 100 µM (inactive) in the assay on 786-0. The GI50 in the assay on UACC-257 is > 100 µM (inactive); in the assay on K562, > 100 µM (inactive); with DLD-1, 95.5 µM (inactive); in the assay on NCI-H226 it was 27.8 µM (inactive); with SW-620, > 100 µM (inactive); in the assay with HCT-15 it was more than 100 µM. The GI50 in the assay on OVCAR-4 and with SK-MEL-5 was > 100 µM (inactive) in each case.
As for `COC(=O)c1cc(=O)nc2cc3cccccc3n12`, the GI50 in the assay on COLO 205, in the assay with TK-10, with UACC-62, in the assay with OVCAR-5, with RXF 393 and in the assay with M14 was > 100 µM (inactive) throughout. Further, the GI50 in the assay with 786-0, with UACC-257, in the assay with SR, with K562, in the assay on DLD-1 and with NCI-H226 was > 100 µM (inactive) in each case. The GI50 is > 100 µM (inactive) in the assay with SW-620, more than 100 µM in the assay with HCT-15 and > 100 µM (inactive) in the assay with SK-MEL-5.
In the case of `CSc1c([S+](C)[O-])[nH]c2cc(Br)cc(Br)c12` (centres undefined), the GI50 in the assay on COLO 205 was 18 µM (inactive); with TK-10, 27.8 µM (inactive); in the assay on UACC-62 it was 17.9 µM (inactive); in the assay with RXF 393 it was 14 µM (inactive); in the assay with M14 it was 25.6 µM (inactive); with 786-0 it was 16 µM (inactive). In addition, the GI50 in the assay on UACC-257 is 33.3 µM (inactive); with K562, 24.2 µM (inactive); in the assay on DLD-1, 16.5 µM (inactive); in the assay on NCI-H226, 27.4 µM (inactive); in the assay with SW-620, 32.8 µM (inactive); in the assay with HCT-15, 22.8 µM. In addition, the GI50 in the assay with SK-MEL-5 is 18.3 µM (inactive).
Consider `O=C1CC(c2c[nH]c3ccccc23)C(=O)N1` (centres undefined), for which the GI50 with TK-10, in the assay on UACC-62, in the assay with OVCAR-5, in the assay on RXF 393, in the assay with M14 and in the assay on 786-0 was > 100 µM (inactive) each time. Moreover, the GI50 in the assay with UACC-257 is > 100 µM (inactive); with K562 it was > 100 µM (inactive); with DLD-1, > 100 µM (inactive); in the assay with NCI-H226 it was > 100 µM (inactive); in the assay on SW-620 it was > 100 µM (inactive); in the assay on HCT-15 it was more than 100 µM. Further, the GI50 in the assay on OVCAR-4 and in the assay with SK-MEL-5 was > 100 µM (inactive) each time.
As to `C[C@]12CC/C(=N\O)C=C1CC[C@@H]1C2CC[C@@]2(C)C1CC[C@@H]2OC1CCCCO1` (some centres undefined), the GI50 with COLO 205 was 17.4 µM (inactive); with TK-10, 22.8 µM (inactive); in the assay on UACC-62 it was > 10 µM (inactive); in the assay on OVCAR-5 it was 15.5 µM (inactive); in the assay on DMS-114, 22 µM (inactive); in the assay on RXF 393, 25.4 µM (inactive). For the same molecule, the GI50 is 18.3 µM (inactive) in the assay on M14; 17.7 µM (inactive) in the assay on 786-0; 20.4 µM (inactive) in the assay with UACC-257; 19 µM (inactive) in the assay with K562; 30.7 µM (inactive) in the assay on DLD-1; 18.1 µM (inactive) in the assay with SW-620. The GI50 in the assay on HCT-15 was 20.1 µM; in the assay with OVCAR-4 it was 15.6 µM (inactive); in the assay on SK-MEL-5, 32.1 µM (inactive).
Take `Cc1cn(C2CC(N(O)Cc3ccccc3)C(CO)O2)c(=O)[nH]c1=O` (centres undefined): the GI50 in the assay on COLO 205, in the assay on TK-10, in the assay with UACC-62, in the assay with OVCAR-5, in the assay on DMS-114 and with RXF 393 was > 100 µM (inactive) each time. Moreover, the GI50 in the assay on M14 was > 100 µM (inactive); in the assay on 786-0, 5.24 µM (inactive); in the assay on UACC-257 it was > 100 µM (inactive); in the assay with SR it was > 100 µM (inactive); in the assay on K562, > 100 µM (inactive); with NCI-H226, > 100 µM (inactive). For the same molecule, the GI50 with SW-620 was > 100 µM (inactive); in the assay on HCT-15, more than 100 µM; in the assay on OVCAR-4, > 100 µM (inactive); with SK-MEL-5, > 100 µM (inactive).
As for `CCOC(=O)Nc1ccc(S(=O)(=O)OC)cc1.CCOC(=O)Nc1ccc(S(=O)(=O)OC)cc1.Nc1ncnc2c1ncn2C1OC(CO)C(O)C1O` (centres undefined), the GI50 in the assay on COLO 205 is 49 µM (inactive); in the assay on TK-10, > 100 µM (inactive); with UACC-62 it was > 100 µM (inactive); with OVCAR-5, > 100 µM (inactive); in the assay on DMS-114, 18 µM (inactive); in the assay on M14 it was > 100 µM (inactive). The GI50 with 786-0 is 21.5 µM (inactive); in the assay on UACC-257, 39.6 µM (inactive); in the assay with K562, 23 µM (inactive); in the assay on DLD-1, 33.1 µM (inactive); in the assay on NCI-H226, > 100 µM (inactive); in the assay on SW-620, 18.2 µM (inactive). The results for the GI50 in the assay on HCT-15, with OVCAR-4 and in the assay with SK-MEL-5 were 34.2 µM, 35.3 µM (inactive) and > 100 µM (inactive), respectively.
On to `CCC(C)(O)c1cn(-c2ccc(Cl)cc2)nn1` (centres undefined), for which the GI50 in the assay with COLO 205, with TK-10, in the assay with UACC-62, in the assay with OVCAR-5, in the assay with RXF 393 and in the assay on M14 was > 100 µM (inactive) in each case. The GI50 in the assay on 786-0, with UACC-257, with SR, in the assay with K562, in the assay with DLD-1 and in the assay with NCI-H226 was > 100 µM (inactive) throughout. The GI50 is > 100 µM (inactive) in the assay on SW-620, more than 100 µM with HCT-15, > 100 µM (inactive) in the assay with OVCAR-4 and > 100 µM (inactive) in the assay on SK-MEL-5.
